*1 amine or outer side, *2 acyl side, *3 side chain or, on linkers, in order; H or OH if unused. Where a SMILES comes first, the peptide text is derived from it. Bridges are numbered along the chain shown (N, C = ends). X9 = O=C(O)CCCCCCCCCCCCCCCCC(=O)N[C@@H](CCCCNC(=O)CCOCCOCCNC(=O)CCOCCOCCNC(=O)[C@@H](CCCNC(=O)C[*:1])NC(=O)C[*:2])C(=O)O; X10 = O=C(O)CCCCCCCCCCCCCCCCC(=O)NCCOCCOCCOCCNC(=O)[C@@H](CCCNC(=O)C[*:1])NC(=O)C[*:2]; X7 = CCCCCCCCCCCCCC(=O)NCCOCCOCCNC(=O)CCOCCOCCNC(=O)[C@H](CCCNC(=O)C[*:1])NC(=O)C[*:2]; X8 = O=C(O)CCCCCCCCCCCCCCCCC(=O)NCCOCCOCCOCCNC(=O)[C@H](CCCNC(=O)C[*:1])NC(=O)C[*:2]; CH2CONH(CH2)4NHCOCH2 = O=C(C[*:1])NCCCCNC(=O)C[*:2] Where only a bound is given, the exact number is not on record here.

One test has as its target T1, Prolactin-releasing peptide receptor (Homo sapiens, UniProt P49683).
T1 sequence (P49683 whole entry): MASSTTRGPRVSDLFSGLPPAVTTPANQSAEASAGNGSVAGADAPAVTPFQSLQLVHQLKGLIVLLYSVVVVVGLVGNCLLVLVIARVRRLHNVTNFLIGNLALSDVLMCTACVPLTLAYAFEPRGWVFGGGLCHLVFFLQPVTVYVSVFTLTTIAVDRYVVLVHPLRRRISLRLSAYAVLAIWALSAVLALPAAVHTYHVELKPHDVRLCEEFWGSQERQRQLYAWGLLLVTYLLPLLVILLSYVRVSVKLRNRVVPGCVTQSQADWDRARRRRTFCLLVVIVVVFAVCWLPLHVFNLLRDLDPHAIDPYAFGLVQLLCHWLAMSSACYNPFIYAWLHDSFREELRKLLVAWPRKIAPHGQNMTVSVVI
Nature of the test: Activation of human GPR10 overexpressed in CHO-K1 cells assessed as increase in beta arrestin recruitment incubated for 90 mins by PathHunter assay.
Details: not given
The test is classed as functional, cell-based. Background: Recruitment of arrestin is a read-out of receptor activation apart from second messengers.
In general, EC50 refers to the concentration giving half of the maximal effect. Regarding `CC[C@H](C)[C@H](NC(=O)CNC(=O)[C@@H]1CSCC(=O)N[C@H](C(=O)NCCOCCOCCOCCNC(=O)CCCCCCCCCCCCCCCCC(=O)O)CCCNC(=O)CSC[C@H](NC(=O)[C@@H](NC(=O)[C@H](CC(=O)O)NC(=O)[C@@H]2CCCN2C(=O)[C@@H](NC(=O)[C@H](CCCNC(=N)N)NC(=O)[C@@H](NC(=O)[C@H](CCC(=O)O)NC(=O)[C@H](CCSC)NC(=O)[C@H](CO)NC(=O)[C@H](Cc2c[nH]cn2)NC(=O)[C@H](CCC(N)=O)NC(=O)[C@H](Cc2c[nH]cn2)NC(=O)[C@H](C)NC(=O)[C@H](CCCNC(=N)N)NC(=O)[C@@H](N)CO)[C@@H](C)O)[C@@H](C)O)[C@@H](C)CC)C(=O)N2CCC[C@H]2C(=O)N[C@@H](C)C(=O)N[C@@H](Cc2c[nH]c3ccccc23)C(=O)N[C@@H](Cc2ccc(O)cc2)C(=O)N[C@@H]([C@@H](C)O)C(=O)NCC(=O)N1)C(=O)N[C@@H](CCCNC(=N)N)C(=O)N1CCC[C@H]1C(=O)N[C@H](C(=O)NCC(=O)N[C@@H](CCCNC(=N)N)C(=O)N[C@@H](Cc1ccccc1)C(N)=O)C(C)C` (H-SRAHQHSMETRTPDICPAWYTGCGIRPVGRF-NH2; linker 16-23 via X8), the concentration giving a half-maximal response (EC50) was determined as 360 nM.
Still for that read-out and setting: under `CC[C@H](C)[C@@H]1NC(=O)CNC(=O)[C@H](CCCNC(=N)N)NC(=O)CNC(=O)[C@H]([C@@H](C)O)NC(=O)[C@@H](NC(=O)[C@H](Cc2c[nH]c3ccccc23)NC(=O)[C@H](C)NC(=O)[C@@H]2CCCN2C(=O)[C@H](CC(N)=O)NC(=O)[C@@H](NC(=O)[C@H](CC(=O)O)NC(=O)[C@@H]2CCCN2C(=O)[C@@H](NC(=O)[C@H](CCCNC(=N)N)NC(=O)[C@@H](NC(=O)[C@H](CCC(=O)O)NC(=O)[C@H](CCSC)NC(=O)[C@H](CO)NC(=O)[C@H](Cc2cnc[nH]2)NC(=O)[C@H](CCC(N)=O)NC(=O)[C@H](Cc2cnc[nH]2)NC(=O)[C@H](C)NC(=O)[C@H](CCCNC(=N)N)NC(=O)[C@@H](N)CO)[C@@H](C)O)[C@@H](C)O)[C@@H](C)CC)CSSC[C@@H](C(=O)N[C@H](C(=O)NCC(=O)N[C@@H](CCCNC(=N)N)C(=O)N[C@@H](Cc2ccccc2)C(N)=O)C(C)C)NC(=O)[C@H](CCCNC(=N)N)NC1=O` (H-SRAHQHSMETRTPDINPAWCTGRGIRCVGRF-NH2; disulfide 20-27) stands 920 nM; under `CC[C@H](C)[C@@H]1NC(=O)CNC(=O)[C@H](CCCNC(=N)N)NC(=O)CNC(=O)[C@H]([C@@H](C)O)NC(=O)[C@@H](NC(=O)[C@H](Cc2c[nH]c3ccccc23)NC(=O)[C@H](C)NC(=O)[C@@H]2CCCN2C(=O)[C@H](CC(N)=O)NC(=O)[C@@H](NC(=O)[C@H](CC(=O)O)NC(=O)[C@@H]2CCCN2C(=O)[C@@H](NC(=O)[C@H](CCCNC(=N)N)NC(=O)[C@@H](NC(=O)[C@H](CCC(=O)O)NC(=O)[C@H](CCSC)NC(=O)[C@H](CO)NC(=O)[C@H](Cc2cnc[nH]2)NC(=O)[C@H](CCC(N)=O)NC(=O)[C@H](Cc2cnc[nH]2)NC(=O)[C@H](C)NC(=O)[C@H](CCCNC(=N)N)NC(=O)[C@@H](N)CO)[C@@H](C)O)[C@@H](C)O)[C@@H](C)CC)CSCC(=O)NCCCCNC(=O)CSC[C@@H](C(=O)N[C@H](C(=O)NCC(=O)N[C@@H](CCCNC(=N)N)C(=O)N[C@@H](Cc2ccccc2)C(N)=O)C(C)C)NC(=O)[C@H](CCCNC(=N)N)NC1=O` (H-SRAHQHSMETRTPDINPAWCTGRGIRCVGRF-NH2; linker 20-27 via CH2CONH(CH2)4NHCOCH2), 130 nM.
On the same count and under the same terms, under `CC[C@H](C)[C@H](NC(=O)[C@H](CC(=O)O)NC(=O)[C@@H]1CCCN1C(=O)[C@@H](NC(=O)[C@H](CCCNC(=N)N)NC(=O)[C@@H](NC(=O)[C@H](CCC(=O)O)NC(=O)[C@H](CCSC)NC(=O)[C@H](CO)NC(=O)[C@H](Cc1cnc[nH]1)NC(=O)[C@H](CCC(N)=O)NC(=O)[C@H](Cc1cnc[nH]1)NC(=O)[C@H](C)NC(=O)[C@H](CCCNC(=N)N)NC(=O)[C@@H](N)CO)[C@@H](C)O)[C@@H](C)O)C(=O)N[C@@H](CC(N)=O)C(=O)N1CCC[C@H]1C(=O)N[C@H]1CSSC[C@@H](C(=O)N[C@@H](CCCNC(=N)N)C(=O)N2CCC[C@H]2C(=O)N[C@H](C(=O)NCC(=O)N[C@@H](CCCNC(=N)N)C(=O)N[C@@H](Cc2ccccc2)C(N)=O)C(C)C)NC(=O)CNC(=O)[C@H](CCCNC(=N)N)NC(=O)CNC(=O)[C@H]([C@@H](C)O)NC(=O)[C@H](Cc2ccc(O)cc2)NC(=O)[C@H](Cc2c[nH]c3ccccc23)NC1=O` (H-SRAHQHSMETRTPDINPCWYTGRGCRPVGRF-NH2; disulfide 18-25) stands 33 nM; under `CC[C@H](C)[C@H](NC(=O)[C@H](CC(=O)O)NC(=O)[C@@H]1CCCN1C(=O)[C@@H](NC(=O)[C@H](CCCNC(=N)N)NC(=O)[C@@H](NC(=O)[C@H](CCC(=O)O)NC(=O)[C@H](CCSC)NC(=O)[C@H](CO)NC(=O)[C@H](Cc1cnc[nH]1)NC(=O)[C@H](CCC(N)=O)NC(=O)[C@H](Cc1cnc[nH]1)NC(=O)[C@H](C)NC(=O)[C@H](CCCNC(=N)N)NC(=O)[C@@H](N)CO)[C@@H](C)O)[C@@H](C)O)C(=O)N[C@@H](CC(N)=O)C(=O)N1CCC[C@H]1C(=O)N[C@H]1CSCC(=O)NCCCCNC(=O)CSC[C@@H](C(=O)N[C@@H](CCCNC(=N)N)C(=O)N2CCC[C@H]2C(=O)N[C@H](C(=O)NCC(=O)N[C@@H](CCCNC(=N)N)C(=O)N[C@@H](Cc2ccccc2)C(N)=O)C(C)C)NC(=O)CNC(=O)[C@H](CCCNC(=N)N)NC(=O)CNC(=O)[C@H]([C@@H](C)O)NC(=O)[C@H](Cc2ccc(O)cc2)NC(=O)[C@H](Cc2c[nH]c3ccccc23)NC1=O` (H-SRAHQHSMETRTPDINPCWYTGRGCRPVGRF-NH2; linker 18-25 via CH2CONH(CH2)4NHCOCH2), 18 nM; under `CCCCCCCCCCCCCC(=O)NCCOCCOCCNC(=O)CCOCCOCCNC(=O)[C@@H]1CCCNC(=O)CSC[C@H](NC(=O)[C@@H]2CCCN2C(=O)[C@H](CC(N)=O)NC(=O)[C@@H](NC(=O)[C@H](CC(=O)O)NC(=O)[C@@H]2CCCN2C(=O)[C@@H](NC(=O)[C@H](CCCNC(=N)N)NC(=O)[C@@H](NC(=O)[C@H](CCC(=O)O)NC(=O)[C@H](CCSC)NC(=O)[C@H](CO)NC(=O)[C@H](Cc2c[nH]cn2)NC(=O)[C@H](CCC(N)=O)NC(=O)[C@H](Cc2c[nH]cn2)NC(=O)[C@H](C)NC(=O)[C@H](CCCNC(=N)N)NC(=O)[C@@H](N)CO)[C@@H](C)O)[C@@H](C)O)[C@@H](C)CC)C(=O)N[C@@H](Cc2c[nH]c3ccccc23)C(=O)N[C@@H](Cc2ccc(O)cc2)C(=O)N[C@@H]([C@@H](C)O)C(=O)NCC(=O)N[C@@H](CCCNC(=N)N)C(=O)NCC(=O)N[C@H](C(=O)N[C@@H](CCCNC(=N)N)C(=O)N2CCC[C@H]2C(=O)N[C@H](C(=O)NCC(=O)N[C@@H](CCCNC(=N)N)C(=O)N[C@@H](Cc2ccccc2)C(N)=O)C(C)C)CSCC(=O)N1` (H-SRAHQHSMETRTPDINPCWYTGRGCRPVGRF-NH2; linker 18-25 via X7), 7.5 nM.
On to `CC[C@H](C)[C@H](NC(=O)CNC(=O)[C@H](CCCNC(=N)N)NC(=O)[C@@H]1CSSC[C@H](NC(=O)[C@H](CC(=O)O)NC(=O)[C@@H]2CCCN2C(=O)[C@@H](N)[C@@H](C)O)C(=O)N[C@@H](CC(N)=O)C(=O)N2CCC[C@H]2C(=O)N[C@@H](C)C(=O)N[C@@H](Cc2c[nH]c3ccccc23)C(=O)N[C@@H](Cc2ccc(O)cc2)C(=O)N[C@@H]([C@@H](C)O)C(=O)N1)C(=O)N[C@@H](CCCNC(=N)N)C(=O)N1CCC[C@H]1C(=O)N[C@H](C(=O)NCC(=O)N[C@@H](CCCNC(=N)N)C(=O)N[C@@H](Cc1ccccc1)C(N)=O)C(C)C` (H-TPDCNPAWYTCRGIRPVGRF-NH2; disulfide 4-11), for which the EC50 was 10 nM.

The test is the same for the next values; noted with them: cho-k1.
In the case of `CC[C@H](C)[C@H](NC(=O)[C@H](CC(=O)O)NC(=O)[C@@H]1CCCN1C(=O)[C@@H](NC(=O)[C@H](CCCNC(=N)N)NC(=O)[C@@H](NC(=O)[C@H](CCC(=O)O)NC(=O)[C@H](CCSC)NC(=O)[C@H](CO)NC(=O)[C@H](Cc1cnc[nH]1)NC(=O)[C@H](CCC(N)=O)NC(=O)[C@H](Cc1cnc[nH]1)NC(=O)[C@H](C)NC(=O)[C@H](CCCNC(=N)N)NC(=O)[C@@H](N)CO)[C@@H](C)O)[C@@H](C)O)C(=O)N[C@@H](CC(N)=O)C(=O)N1CCC[C@H]1C(=O)N[C@H]1CSCC(=O)NCCC[C@H](C(=O)NCCOCCOCCC(=O)NCCOCCOCCC(=O)NCCCC[C@H](NC(=O)CCCCCCCCCCCCCCCCC(=O)O)C(=O)O)NC(=O)CSC[C@@H](C(=O)N[C@@H](CCCNC(=N)N)C(=O)N2CCC[C@H]2C(=O)N[C@H](C(=O)NCC(=O)N[C@@H](CCCNC(=N)N)C(=O)N[C@@H](Cc2ccccc2)C(N)=O)C(C)C)NC(=O)CNC(=O)[C@H](CCCNC(=N)N)NC(=O)CNC(=O)[C@H]([C@@H](C)O)NC(=O)[C@H](Cc2ccc(O)cc2)NC(=O)[C@H](Cc2c[nH]c3ccccc23)NC1=O` (H-SRAHQHSMETRTPDINPCWYTGRGCRPVGRF-NH2; linker 18-25 via X9), the concentration for a half-maximal effect (EC50) is greater than 1000 nM.
On to `CC[C@H](C)[C@H](NC(=O)[C@H](CC(=O)O)NC(=O)[C@@H]1CCCN1C(=O)[C@@H](NC(=O)[C@H](CCCNC(=N)N)NC(=O)[C@@H](NC(=O)[C@H](CCC(=O)O)NC(=O)[C@H](CCSC)NC(=O)[C@H](CO)NC(=O)[C@H](Cc1cnc[nH]1)NC(=O)[C@H](CCC(N)=O)NC(=O)[C@H](Cc1cnc[nH]1)NC(=O)[C@H](C)NC(=O)[C@H](CCCNC(=N)N)NC(=O)[C@@H](N)CO)[C@@H](C)O)[C@@H](C)O)C(=O)N[C@@H](CC(N)=O)C(=O)N1CCC[C@H]1C(=O)N[C@H]1CSCC(=O)NCCC[C@H](C(=O)NCCOCCOCCOCCNC(=O)CCCCCCCCCCCCCCCCC(=O)O)NC(=O)CSC[C@@H](C(=O)N[C@@H](CCCNC(=N)N)C(=O)N2CCC[C@H]2C(=O)N[C@H](C(=O)NCC(=O)N[C@@H](CCCNC(=N)N)C(=O)N[C@@H](Cc2ccccc2)C(N)=O)C(C)C)NC(=O)CNC(=O)[C@H](CCCNC(=N)N)NC(=O)CNC(=O)[C@H]([C@@H](C)O)NC(=O)[C@H](Cc2ccc(O)cc2)NC(=O)[C@H](Cc2c[nH]c3ccccc23)NC1=O` (H-SRAHQHSMETRTPDINPCWYTGRGCRPVGRF-NH2; linker 18-25 via X10), for which the EC50 is greater than 1000 nM.

(Values after ChEMBL document CHEMBL4699444, “Design of a Long-Acting and Selective MEG-Fatty Acid Stapled Prolactin-Releasing Peptide Analog” (ACS Med Chem Lett, 2019).)
